We go through two molecules from ChEMBL document CHEMBL5137080, “Discovery of Novel 7-Hydroxy-5-oxo-4,5-dihydrothieno[3,2-b]pyridine-6-carboxamide Derivatives with Potent and Selective Antifungal Activity against Cryptococcus Species” (J Med Chem, 2022).

Data set [1] deals with Cryptococcus gattii species complex. As to the kind of experiment: Antifungal activity against Cryptococcus gattii clinical isolate SCZ20024 assessed as fungal growth inhibition incubated for 72 hrs in presence of Fluconazole by broth microdilution method. Format: functional.
In data set [2] the test system is Cryptococcus neoformans. As to the kind of experiment: Synergistic antifungal activity against Cryptococcus neoformans clinical isolate HN19 assessed as fractional inhibitory concentration index incubated for 72 hrs in presence of Fluconazole by broth microdilution method. Format: functional. (In general: Broth dilution looks for growth in wells or tubes with falling amounts of substance.)

Data set [3] has as its system [Candida] auris. The data set can be described thus: Synergistic antifungal activity against Candida auris CBS 12372 assessed as fractional inhibitory concentration index incubated for 48 hrs in presence of Fluconazole by broth microdilution method. Format: functional, Candidozyma auris.
Data set [4] concerns Cryptococcus deuterogattii. As to the kind of experiment: Antifungal activity against Cryptococcus gattii WM178 assessed as reduction on fungal growth at 2 ug/ml incubated for 48 hrs by plate reader assay. Details: scale not given: the % may be the effect or the level left. Format: functional, Cryptococcus gattii species complex. Conditions: dose 2 µg/ml.
Data set [5] deals with Cryptococcus neoformans. As to the kind of experiment: Antifungal activity against Cryptococcus neoformans clinical isolate SH68 assessed as fungal growth inhibition incubated for 72 hrs in presence of Fluconazole by broth microdilution method. Format: functional.
Data set [6] deals with Cryptococcus neoformans. As to the kind of experiment: Synergistic antifungal activity against Cryptococcus neoformans clinical isolate BJ3 assessed as fractional inhibitory concentration index incubated for 72 hrs in presence of Fluconazole by broth microdilution method. Format: functional.
Another data set concerns Candida albicans. The data set can be described thus: Antifungal activity against Candida albicans SC5314 assessed as fungal growth inhibition incubated for 48 hrs in presence of Fluconazole by broth microdilution method. Format: functional.
Data set [7] deals with Cryptococcus neoformans. The data set can be described thus: Synergistic antifungal activity against Cryptococcus neoformans clinical isolate SH68 assessed as fractional inhibitory concentration index incubated for 72 hrs in presence of Fluconazole by broth microdilution method. Format: functional.
Data set [8] has as its system Pichia kudriavzevii. As to the kind of experiment: Antifungal activity against Candida krusei ATCC2340 assessed as fungal growth inhibition incubated for 48 hrs in presence of Fluconazole by broth microdilution method. Format: functional.
Data set [9] can be described thus: Cmax in Sprague-Dawley rat at 5 mg/kg,po by LC-MS/MS analysis. Format: ADME, organism-based. More on the design: dose 5 mg/kg, route po. Conditions: in vivo.
The test system of data set [10] is Cryptococcus neoformans. The data set can be described thus: Synergistic antifungal activity against Cryptococcus neoformans clinical isolate HN2-40 assessed as fractional inhibitory concentration index incubated for 72 hrs in presence of Fluconazole by broth microdilution method. Format: functional.
Data set [11] has as its system Candida parapsilosis. The data set can be described thus: Antifungal activity against Candida parapsilosis ATCC22019 assessed as fungal growth inhibition incubated for 48 hrs by broth microdilution method. Format: functional. Conditions: Lodderomyces parapsilosis.
Data set [12] concerns Cryptococcus neoformans. The data set can be described thus: Antifungal activity against Cryptococcus neoformans clinical isolate HN20 assessed as fungal growth inhibition incubated for 72 hrs in presence of Fluconazole by broth microdilution method. Format: functional.
For data set [13], the system named is Cryptococcus neoformans. The data set can be described thus: Synergistic antifungal activity against Cryptococcus neoformans clinical isolate 443 assessed as fractional inhibitory concentration index incubated for 72 hrs in presence of Fluconazole by broth microdilution method. Format: functional.
Data set [14] in a line: Cytotoxicity against human Caco-2 cells assessed as cell growth inhibition incubated for 24 hrs by CCK-8 assay. Format: toxicity, cell-based. Background: Tetrazolium assays rely on reduction of a dye to a coloured formazan, in cell work by metabolically active cells.
Data set [15] concerns Cryptococcus neoformans. The data set can be described thus: Antifungal activity against Cryptococcus neoformans clinical isolate 444 assessed as fungal growth inhibition incubated for 72 hrs in presence of Fluconazole by broth microdilution method. Format: functional.
Data set [16] concerns Cryptococcus gattii species complex. The data set can be described thus: Antifungal activity against Cryptococcus gattii E566 assessed as fungal growth inhibition incubated for 72 hrs in presence of Fluconazole by broth microdilution method. Format: functional.
Data set [17] relates to Cryptococcus neoformans. As to the kind of experiment: Synergistic antifungal activity against Cryptococcus neoformans clinical isolate HN17 assessed as fractional inhibitory concentration index incubated for 72 hrs in presence of Fluconazole by broth microdilution method. Format: functional.
Data set [18] is described as follows: Selectivity index, ratio of IC50 for human HUVEC to MIC for antifungal activity against Cryptococcus neoformans. Format: toxicity. Conditions: HUVEC cells, read-out: Selectivity Index.
Data set [19] has as its system [Candida] auris. As to the kind of experiment: Antifungal activity against Candida auris CBS 12372 assessed as fungal growth inhibition incubated for 48 hrs in presence of Fluconazole by broth microdilution method. Format: functional. Conditions: Candidozyma auris.
Data set [20] is described as follows: C0 in Sprague-Dawley rat at 2 mg/kg,iv by LC-MS/MS analysis. Format: ADME, organism-based. Conditions: in vivo.
Data set [21] relates to Pichia kudriavzevii. As to the kind of experiment: Synergistic antifungal activity against Candida krusei ATCC2340 assessed as fractional inhibitory concentration index incubated for 48 hrs in presence of Fluconazole by broth microdilution method. Format: functional.
Data set [22] concerns Cryptococcus neoformans. The data set can be described thus: Antifungal activity against Cryptococcus neoformans clinical isolate HN15 assessed as fungal growth inhibition incubated for 72 hrs in presence of Fluconazole by broth microdilution method. Format: functional.
Data set [23] concerns Cryptococcus neoformans. The data set can be described thus: Synergistic antifungal activity against Cryptococcus neoformans clinical isolate 444 assessed as fractional inhibitory concentration index incubated for 72 hrs in presence of Fluconazole by broth microdilution method. Format: functional.
Data set [24] has as its system Cryptococcus neoformans. The data set can be described thus: Antifungal activity against Cryptococcus neoformans clinical isolate 56992 assessed as fungal growth inhibition incubated for 72 hrs in presence of Fluconazole by broth microdilution method. Format: functional.
In data set [25] the test system is Pichia kudriavzevii. As to the kind of experiment: Antifungal activity against Candida krusei ATCC2340 assessed as fungal growth inhibition incubated for 48 hrs in presence of P163-0892 by broth microdilution method. Format: functional.
Data set [26] concerns Cryptococcus neoformans. As to the kind of experiment: Synergistic antifungal activity against Cryptococcus neoformans clinical isolate BJ3 assessed as fractional inhibitory concentration index incubated for 72 hrs in presence of P163-0892 by broth microdilution method. Format: functional.
Data set [27] relates to Cryptococcus neoformans. As to the kind of experiment: Synergistic antifungal activity against Cryptococcus neoformans clinical isolate HN1 assessed as fractional inhibitory concentration index incubated for 72 hrs in presence of P163-0892 by broth microdilution method. Format: functional.
Data set [28] relates to Cryptococcus neoformans. As to the kind of experiment: Synergistic antifungal activity against Cryptococcus neoformans clinical isolate 56992 assessed as fractional inhibitory concentration index incubated for 72 hrs in presence of P163-0892 by broth microdilution method. Format: functional.
In data set [29] the test system is Cryptococcus neoformans. As to the kind of experiment: Antifungal activity against Cryptococcus neoformans clinical isolate HN20 assessed as fungal growth inhibition incubated for 72 hrs in presence of P163-0892 by broth microdilution method. Format: functional.
Data set [30] concerns Cryptococcus neoformans. As to the kind of experiment: Antifungal activity against Cryptococcus neoformans H99 infected in Wax moth larvae assessed as reduction on fungal burden at 10 mg/kg measured after 9 days in presence of P163-0892 by 10 fold serial dilution method. Format: functional. Conditions: time 9 day.
Data set [31] has as its system Cryptococcus gattii species complex. As to the kind of experiment: Synergistic antifungal activity against Cryptococcus gattii E566 assessed as fractional inhibitory concentration index incubated for 72 hrs in presence of P163-0892 by broth microdilution method. Format: functional.
Data set [32] relates to [Candida] auris. As to the kind of experiment: Antifungal activity against Candida auris CBS 12372 assessed as fungal growth inhibition incubated for 48 hrs in presence of P163-0892 by broth microdilution method. Format: functional. Conditions: Candidozyma auris.
The test system of data set [33] is Candida parapsilosis. As to the kind of experiment: Synergistic antifungal activity against Candida parapsilosis ATCC22019 assessed as fractional inhibitory concentration index incubated for 48 hrs in presence of P163-0892 by broth microdilution method. Format: functional.
For data set [34], the system named is Cryptococcus neoformans. As to the kind of experiment: Antifungal activity against Cryptococcus neoformans clinical isolate HN19 assessed as fungal growth inhibition incubated for 72 hrs in presence of P163-0892 by broth microdilution method. Format: functional.
The test system of the next data set is Nakaseomyces glabratus. The data set can be described thus: Synergistic antifungal activity against Candida glabrata ATCC1182 assessed as fractional inhibitory concentration index incubated for 48 hrs in presence of P163-0892 by broth microdilution method. Format: functional.
The subject of another data set is Cryptococcus gattii. The data set can be described thus: Synergistic antifungal activity against Cryptococcus gattii WM179 assessed as fractional inhibitory concentration index incubated for 72 hrs in presence of P163-0892 by broth microdilution method. Format: functional, Cryptococcus gattii species complex.
The subject of data set [35] is Cryptococcus neoformans. As to the kind of experiment: Synergistic antifungal activity against Cryptococcus neoformans clinical isolate HN17 assessed as fractional inhibitory concentration index incubated for 72 hrs in presence of P163-0892 by broth microdilution method. Format: functional.
For data set [36], the system named is Cryptococcus deuterogattii. The data set can be described thus: Antifungal activity against Cryptococcus gattii WM178 assessed as fungal growth inhibition incubated for 72 hrs in presence of P163-0892 by broth microdilution method. Format: functional, Cryptococcus gattii species complex.

For orientation: MIC means the least concentration at which growth counts as inhibited. In general, Cmax refers to the maximum level reached in the sampled fluid or tissue. For orientation: IC50 means the concentration that inhibits the measured activity by half. For the molecule `CCCCNC(=O)c1c(O)c2sccc2n(Cc2ccccc2)c1=O`, the MIC in [1] is 0.0313 µg/mL; with Cryptococcus neoformans [5], 0.0625 µg/mL; in the data set with Candida albicans, 1 µg/mL; in the data set on Pichia kudriavzevii [8], 8 µg/mL; in the data set on Candida parapsilosis [11], more than 64 µg/mL; in the data set with Cryptococcus neoformans [12], 0.0625 µg/mL. In addition, the MIC in the data set with Cryptococcus neoformans [15] is 0.0156 µg/mL; in data set [16], 0.0313 µg/mL; in [Candida] auris [19], 1 µg/mL; in the data set on Cryptococcus neoformans [22], 0.0625 µg/mL; in the data set with Cryptococcus neoformans [24], 0.125 µg/mL. Further, the “fractional inhibitory concentration index (FICI)” value was determined as 0.281 in the data set with Cryptococcus neoformans [2]; 1.008 in [Candida] auris [3]; 0.188 in the data set on Cryptococcus neoformans [6]; 0.25 in the data set on Cryptococcus neoformans [7]; 0.188 in the data set on Cryptococcus neoformans [10]; 0.156 in the data set with Cryptococcus neoformans [13]. The “fractional inhibitory concentration index (FICI)” value with Cryptococcus neoformans [17] amounted to 0.156; in the data set on Pichia kudriavzevii [21], 0.563; in the data set with Cryptococcus neoformans [23] it was 0.156. Also, in data set [4], the Activity amounted to 45.5%. Further, the peak level in data set [9] (Cmax) was 2.97 ng/mL. The IC50 at 24 h in data set [14] was more than 256 µg/mL. Also, the selectivity ratio in data set [18] is more than 256. The same molecule returned a C0 in data set [20] of 2460 ng/mL.
Take `OC(Cn1cncn1)(Cn1cncn1)c1ccc(F)cc1F` [FLUCONAZOLE]: the MIC with Pichia kudriavzevii [25] was 32 µg/mL; in the data set on Cryptococcus neoformans [29] it was 0.0625 µg/mL; in [Candida] auris [32] it was more than 64 µg/mL; in the data set with Cryptococcus neoformans [34], 1 µg/mL; in data set [36], 0.5 µg/mL. In addition, the “fractional inhibitory concentration index (FICI)” value with Cryptococcus neoformans [26] was 0.188; in the data set with Cryptococcus neoformans [27], 0.125; with Cryptococcus neoformans [28], 0.25; in data set [31], 0.188; with Candida parapsilosis [33] it was 0.625; in the data set with Nakaseomyces glabratus it was 0.625. Moreover, the “fractional inhibitory concentration index (FICI)” value in the data set with Cryptococcus gattii worked out at 0.25; in the data set with Cryptococcus neoformans [35] it was 0.156. Also, in the data set with Cryptococcus neoformans [30], the Activity is given as 4.8 log10CFU/g.
